Test results from patent US9957271B2, “Substituted bicyclic aza-heterocycles and analogues as sirtuin modulators” (GlaxoSmithKline, LLC, priority 2012, dated 2018).

Tests used:
SIRT1 [1] = target: T1, SIRT1 (Homo sapiens, UniProt Q96EB6); test: TAMRA based mass spectrometry assay of SIRT1 activity; assay type: biochemical; conditions: for Emax: read-out: TAMRA % Fold Act
T1 sequence (Q96EB6 1-747): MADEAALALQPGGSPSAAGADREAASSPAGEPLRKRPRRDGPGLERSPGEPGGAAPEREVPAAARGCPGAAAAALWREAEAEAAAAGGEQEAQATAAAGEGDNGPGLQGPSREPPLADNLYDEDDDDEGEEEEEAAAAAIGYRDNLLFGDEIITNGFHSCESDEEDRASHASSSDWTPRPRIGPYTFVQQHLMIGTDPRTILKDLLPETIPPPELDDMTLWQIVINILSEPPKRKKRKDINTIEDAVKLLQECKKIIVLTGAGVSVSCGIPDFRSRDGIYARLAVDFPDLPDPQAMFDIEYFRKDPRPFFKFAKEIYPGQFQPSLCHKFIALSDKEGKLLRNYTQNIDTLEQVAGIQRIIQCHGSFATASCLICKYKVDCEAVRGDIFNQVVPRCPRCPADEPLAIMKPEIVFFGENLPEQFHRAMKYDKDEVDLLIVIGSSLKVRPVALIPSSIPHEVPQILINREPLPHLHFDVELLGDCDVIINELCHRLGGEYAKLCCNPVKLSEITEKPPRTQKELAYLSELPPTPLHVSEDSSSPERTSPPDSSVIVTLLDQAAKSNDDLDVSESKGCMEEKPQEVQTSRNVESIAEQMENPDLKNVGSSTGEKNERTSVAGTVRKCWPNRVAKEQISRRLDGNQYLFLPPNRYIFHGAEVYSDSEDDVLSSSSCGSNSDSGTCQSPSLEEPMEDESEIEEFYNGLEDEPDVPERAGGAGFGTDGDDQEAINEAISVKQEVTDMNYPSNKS
Procedure, shortened: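 Deacetylation of a biotinylated, TAMRA-tagged p53-based peptide (0.5 μM) by 10 nM His-tagged SIRT1 with 120 μM βNAD+, 25 °C for 25 min, pH 8 Tris-acetate buffer, across a compound concentration range. Quenched by formic acid and read by mass spec as product peptide or OAADPR; activity relative to DMSO reactions, nicotinamide defining maximal inhibition.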

SIRT1 [2] = target: T1, SIRT1; test: Trp mass spectrometry assay of SIRT1 activity; assay type: biochemical; conditions: for Emax: read-out: Trp % Fold Act
Procedure, shortened: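 Activation readout: EC1.5 (concentration raising activity 50% over control) and percent maximum activation, from mass-spec quantitation of OAADPR or deacetylated Trp peptide. Reaction: 0.5 μM acetylated Trp peptide, 120 μM βNAD+, 10 nM bacterially expressed N-His SIRT1, pH 7.5 HEPES buffer with […], 25 min at 25° C.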

[3] = concentration of test compound giving 150% activation of SIRT1, TAMRA peptide substrate
[4] = percent maximum fold activation of SIRT1, TAMRA peptide substrate
[5] = concentration of test compound giving 150% activation of SIRT1, Trp peptide substrate
[6] = percent maximum fold activation of SIRT1, Trp peptide substrate
[7] = TAMRA assay, concentration giving 150% activation of SIRT1
[8] = TAMRA assay, percent maximum fold activation
[9] = Trp assay, concentration giving 150% activation of SIRT1
[10] = Trp assay, percent maximum fold activation
[11] = TAMRA peptide substrate, concentration giving 150% activation of SIRT1
[12] = TAMRA peptide substrate, percent maximum fold activation
[13] = Trp peptide substrate, concentration giving 150% activation of SIRT1
[14] = Trp peptide substrate, percent maximum fold activation

TAMRA EC1.5 (μM) (SIRT1 [1]; [7]) | Emax (SIRT1 [1]; [8]) | Trp EC1.5 (μM) (SIRT1 [2]; [9]) | Emax (SIRT1 [2]; [10]) | Structure (SMILES) | also measured
A (EC1.5<1 μM) | ≥ 350% | A (EC1.5<1 μM) | ≥ 350% | Cc1c(-c2ccccc2C(F)(F)F)nn2c(C(=O)Nc3cccc(OC[C@H](O)CO)n3)cnc2c1C [Compound 387, (R)-N-(6-(2,3-dihydroxypropoxy)pyridin-2-yl)-7,8-dimethyl-6-(2-(trifluoromethyl)phenyl)imidazo[1,2-b]pyridazine-3-carboxamide] | 
A (EC1.5<1 μM) | ≥ 350% | A (EC1.5<1 μM) | ≥ 350% | CCOc1cc(NC(=O)c2c(C)nn3ccc(-c4ccccc4C(F)(F)F)nc23)ccn1 [Compound 707] | 
B (EC1.5 1-25 μM) | ≥ 350% | B (EC1.5 1-25 μM) | ≥ 350% | Cc1nc2ccc(-c3cccc(OC[C@H](O)CO)c3)nn2c1C(=O)Nc1ccccn1 [Compound 772, (R)-6-(3-(2,3-dihydroxypropoxy)phenyl)-2-methyl-N-(pyridin-2-yl)imidazo[1,2-b]pyridazine-3-carboxamide] | 
B (EC1.5 1-25 μM) | < 350% | A (EC1.5<1 μM) | < 350% | Cc1nc2ccc(-c3cccc(OC[C@H](O)CO)c3)nn2c1C(=O)Nc1ccc(F)cn1 [Compound 821] | 
A (EC1.5<1 μM) | ≥ 350% | A (EC1.5<1 μM) | < 350% | O=C(Nc1ccncc1F)c1cnn2ccc(-c3ccccc3OC(F)(F)F)nc12 [Compound 606] | 
B (EC1.5 1-25 μM) | < 350% | A (EC1.5<1 μM) | ≥ 350% | Cc1nc2ccc(-c3cccc(F)c3)nn2c1C(=O)Nc1cccnn1 [Compound 767] | 
A (EC1.5<1 μM) | ≥ 350% | B (EC1.5 1-25 μM) | < 350% | Cc1cc(NC(=O)c2c(C)nc3ccc(-c4ccccc4OC[C@H](O)CO)nn23)nc(C)n1 [Compound 818] | 
A (EC1.5<1 μM) | ≥ 350% | A (EC1.5<1 μM) | ≥ 350% | O=C(Nc1cccnn1)c1cnn2ccc(-c3ccccc3OC(F)(F)F)nc12 [Compound 624] | 
A (EC1.5<1 μM) | ≥ 350% | A (EC1.5<1 μM) | ≥ 350% | Cc1ccc(NC(=O)c2cnn3ccc(-c4ccccc4OC(F)(F)F)nc23)cn1 [Compound 621] | 
A (EC1.5<1 μM) | ≥ 350% | B (EC1.5 1-25 μM) | < 350% | Cc1ccnc(NC(=O)c2cnn3ccc(-c4ccccc4OC(F)(F)F)nc23)c1 [Compound 604] | 
C (EC1.5>25 μM) | < 350% | C (EC1.5>25 μM) | < 350% | O=C(Nc1ccc(F)cn1)c1cnn2ccc(-c3ccccc3OC(F)(F)F)nc12 [Compound 609] | 
A (EC1.5<1 μM) | ≥ 350% | B (EC1.5 1-25 μM) | < 350% | Cc1cc(C)nc(NC(=O)c2c(C)nc3ccc(-c4cccc(OC[C@H](O)CO)c4)nn23)c1 [Compound 791] | 
A (EC1.5<1 μM) | ≥ 350% | B (EC1.5 1-25 μM) | < 350% | Cc1ccc(NC(=O)c2cnn3ccc(-c4ccccc4OC(F)(F)F)nc23)nn1 [Compound 633] | 

The remaining lines, values behind:

Structure (SMILES) | TAMRA EC1.5 (μM) (SIRT1 [1]; [7]) | Emax (SIRT1 [1]; [8]) | Trp EC1.5 (μM) (SIRT1 [2]; [9]) | Emax (SIRT1 [2]; [10]) | also measured
Cc1cnc(NC(=O)c2cnc3ccc(-c4cccc(C(F)(F)F)c4)nn23)s1 [Compound 17] |  |  |  |  | TAMRA EC1.5 (μM) (SIRT1 [1]; [3]): B (EC1.5 1-25 μM); Emax (SIRT1 [1]; [4]): < 350%; Trp EC1.5 (μM) (SIRT1 [2]; [5]): B (EC1.5 1-25 μM); Emax (SIRT1 [2]; [6]): < 350%
Cc1nc(C(=O)Nc2c(C)nc3ccc(-c4ccccc4Cl)nn23)c(C)s1 [Compound 352] | B (EC1.5 1-25 μM) | < 350% | C (EC1.5>25 μM) | < 350% | 
Cc1cc(-c2ccccc2C(F)(F)F)nn2c(C(=O)Nc3ccncc3F)cnc12 [Compound 541] |  |  |  |  | TAMRA EC1.5 (SIRT1 [1]; [11]): A (EC1.5<1 μM); Emax (SIRT1 [1]; [12]): ≥ 350%; Trp EC1.5 (SIRT1 [2]; [13]): B (EC1.5 1-25 μM); Emax (SIRT1 [2]; [14]): ≥ 350%
O=C(Nc1ccccn1)c1cnn2ccc(-c3ccccc3OC(F)(F)F)nc12 [Compound 529] |  |  |  |  | TAMRA EC1.5 (SIRT1 [1]; [11]): A (EC1.5<1 μM); Emax (SIRT1 [1]; [12]): ≥ 350%; Trp EC1.5 (SIRT1 [2]; [13]): A (EC1.5<1 μM); Emax (SIRT1 [2]; [14]): < 350%
O=C(Nc1cnc2ccc(-c3ccccc3Cl)nn12)c1ncccn1 [Compound 290] | B (EC1.5 1-25 μM) | ≥ 350% | C (EC1.5>25 μM) | < 350% | 
O=C(Nc1cnc2ccc(-c3ccccc3C(F)(F)F)nn12)c1cccc(OC[C@H](O)CO)n1 [Compound 236] | A (EC1.5<1 μM) | ≥ 350% | A (EC1.5<1 μM) | ≥ 350% | 
O=C(Nc1ncc(CN2CCOCC2)s1)c1cnc2ccc(-c3ccccc3C(F)(F)F)nn12 [Compound 150] |  |  |  |  | TAMRA EC1.5 (μM) (SIRT1 [1]; [3]): B (EC1.5 1-25 μM); Emax (SIRT1 [1]; [4]): < 350%; Trp EC1.5 (μM) (SIRT1 [2]; [5]): B (EC1.5 1-25 μM); Emax (SIRT1 [2]; [6]): < 350%
Cn1cnc(C(=O)Nc2cnc3ccc(-c4ccccc4C(F)(F)F)nn23)c1 [Compound 92] |  |  |  |  | TAMRA EC1.5 (μM) (SIRT1 [1]; [3]): B (EC1.5 1-25 μM); Emax (SIRT1 [1]; [4]): ≥ 350%; Trp EC1.5 (μM) (SIRT1 [2]; [5]): C (EC1.5>25 μM); Emax (SIRT1 [2]; [6]): < 350%
Cc1cc(C)nc(NC(=O)c2cnc3ccc(-c4ccccc4C(F)(F)F)nn23)c1 [Compound 101] |  |  |  |  | TAMRA EC1.5 (μM) (SIRT1 [1]; [3]): A (EC1.5<1 μM); Emax (SIRT1 [1]; [4]): ≥ 350%; Trp EC1.5 (μM) (SIRT1 [2]; [5]): B (EC1.5 1-25 μM); Emax (SIRT1 [2]; [6]): ≥ 350%
O=C(Nc1cnc2ccc(-c3ccccc3C(F)(F)F)nn12)c1cscn1 [Compound 218] | A (EC1.5<1 μM) | ≥ 350% | B (EC1.5 1-25 μM) | < 350% | 
Cc1nc(C(=O)Nc2cnc3cc(C)c(-c4ccccc4C(F)(F)F)nn23)c(C)s1 [Compound 445] |  |  |  |  | TAMRA EC1.5 (SIRT1 [1]; [11]): A (EC1.5<1 μM); Emax (SIRT1 [1]; [12]): ≥ 350%; Trp EC1.5 (SIRT1 [2]; [13]): B (EC1.5 1-25 μM); Emax (SIRT1 [2]; [14]): < 350%
Cc1ncccc1-c1ccc2ncc(C(=O)Nc3ccnc(N4CCCC4)c3)n2n1 [Compound 59] |  |  |  |  | TAMRA EC1.5 (μM) (SIRT1 [1]; [3]): B (EC1.5 1-25 μM); Emax (SIRT1 [1]; [4]): < 350%; Trp EC1.5 (μM) (SIRT1 [2]; [5]): C (EC1.5>25 μM); Emax (SIRT1 [2]; [6]): < 350%
Cn1cc(-c2ccc3ncc(C(=O)Nc4cccc(N5CCOCC5)n4)n3n2)cn1 [Compound 56] |  |  |  |  | TAMRA EC1.5 (μM) (SIRT1 [1]; [3]): B (EC1.5 1-25 μM); Emax (SIRT1 [1]; [4]): < 350%; Trp EC1.5 (μM) (SIRT1 [2]; [5]): B (EC1.5 1-25 μM); Emax (SIRT1 [2]; [6]): < 350%
Cc1cnc(C(=O)Nc2cnc3ccc(-c4ccccc4OC(F)(F)F)nn23)s1 [Compound 320] | A (EC1.5<1 μM) | ≥ 350% | B (EC1.5 1-25 μM) | < 350% | 
O=C(Nc1cccc(CN2CCOCC2)n1)c1cnc2ccc(-c3cccc(F)c3F)nn12 [Compound 47] |  |  |  |  | TAMRA EC1.5 (μM) (SIRT1 [1]; [3]): A (EC1.5<1 μM); Emax (SIRT1 [1]; [4]): ≥ 350%; Trp EC1.5 (μM) (SIRT1 [2]; [5]): C (EC1.5>25 μM); Emax (SIRT1 [2]; [6]): < 350%
Cc1nc2ccc(-c3ccccc3Cl)nn2c1NC(=O)c1cccc(OCC(O)CO)n1 (stereo not shown) [Compound 357] | C (EC1.5>25 μM) | < 350% | C (EC1.5>25 μM) | < 350% | 
O=C(Nc1cccc(N2CCOCC2)n1)c1cnc2ccc(N3CC[C@H](F)C3)nn12 [Compound 487, (S)-6-(3-fluoropyrrolidin-1-yl)-N-(6-morpholinopyridin-2-yl)imidazo[1,2-b]pyridazine-3-carboxamide] |  |  |  |  | TAMRA EC1.5 (SIRT1 [1]; [11]): B (EC1.5 1-25 μM); Emax (SIRT1 [1]; [12]): < 350%; Trp EC1.5 (SIRT1 [2]; [13]): A (EC1.5<1 μM); Emax (SIRT1 [2]; [14]): ≥ 350%
Cc1c(-c2ccccc2Cl)nn2c(NC(=O)c3cccc(N4CCCC4)n3)cnc2c1C [Compound 386] | A (EC1.5<1 μM) | ≥ 350% | B (EC1.5 1-25 μM) | < 350% | 
